Measurements: patent publication US20240299385A1 (ReWind Therapeutics NV, priority 2021, published 2024)

What follows are compounds tested against T1, human GPR17 receptor (Homo sapiens, UniProt Q13304) (assay: Calcium mobilization functional assay (Fluo-8, FLIPR TETRA) in HEK-293 hGPR17 (Gα-q assay)). Conditions: antagonism of MDL29,951 (~EC80) induced Ca2+ signal; cell line (HEK-293 hGPR17 or HEK-293 Suchi5 hGPR17) not given.
T1 construct: host or cells: HEK-293
Type: cell-based
Summary of the method: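 Fluo-8-loaded HEK-293 hGPR17 cells (60 min dye loading, room temperature) were preincubated with compound for twenty minutes, then challenged with agonist MDL29,951 at ~EC80, 500 nM. Intracellular calcium release via Gα-q was recorded as FLIPR fluorescence for a further 2 minutes; compounds tested in duplicate.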

T1 sequence (Q13304 whole entry): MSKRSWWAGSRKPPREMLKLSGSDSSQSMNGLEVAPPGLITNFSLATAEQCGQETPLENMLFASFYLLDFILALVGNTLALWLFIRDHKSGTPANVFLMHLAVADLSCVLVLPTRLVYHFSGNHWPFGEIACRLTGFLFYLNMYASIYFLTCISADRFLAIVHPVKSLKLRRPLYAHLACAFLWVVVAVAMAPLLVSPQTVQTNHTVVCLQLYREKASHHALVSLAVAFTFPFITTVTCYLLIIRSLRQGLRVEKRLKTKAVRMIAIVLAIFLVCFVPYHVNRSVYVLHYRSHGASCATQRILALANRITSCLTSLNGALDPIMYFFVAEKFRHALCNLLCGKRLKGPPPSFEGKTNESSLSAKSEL

IC50 [µM] | SMILES
0.5 to 5 | O=S(=O)(Nc1ncc(OCC(F)F)cc1F)c1c[nH]cc1Cc1ccccc1 [Cpd 432, 4-benzyl-N-[5-(2,2-difluoroethoxy)-3-fluoropyridin-2-yl]-1H-pyrrole-3-sulfonamide]
5 to 50 | COc1cc(OC(F)F)cnc1NS(=O)(=O)c1c[nH]cc1Cc1ccccc1 [Cpd 433, 4-benzyl-N-[5-(difluoromethoxy)-3-methoxypyridin-2-yl]-1H-pyrrole-3-sulfonamide]
0.5 to 5 | O=S(=O)(Nc1ncc(OCC(F)F)cc1F)c1c[nH]c(-c2ccccc2)c1 [Cpd 434, N-[5-(2,2-difluoroethoxy)-3-fluoropyridin-2-yl]-5-phenyl-1H-pyrrole-3-sulfonamide]
0.5 to 5 | COc1nc(Br)cnc1NS(=O)(=O)c1c[nH]c(-c2ccccc2)c1 [Cpd 435, N-(5-bromo-3-methoxypyrazin-2-yl)-5-phenyl-1H-pyrrole-3-sulfonamide]
< 0.5 | COc1nc(OCC(F)F)c(F)cc1NS(=O)(=O)c1c[nH]c(-c2ccccc2)c1 [Cpd 436, N-[6-(2,2-difluoroethoxy)-5-fluoro-2-methoxypyridin-3-yl]-5-phenyl-1H-pyrrole-3-sulfonamide]
5 to 50 | N#Cc1ccc(NS(=O)(=O)c2c[nH]cc2-c2cccnc2)c(F)c1 [Cpd 437, N-(4-cyano-2-fluorophenyl)-4-(pyridin-3-yl)-1H-pyrrole-3-sulfonamide]
5 to 50 | O=S(=O)(Nc1ncc(OCC(F)F)cc1F)c1c[nH]cc1-c1cccc(F)c1 [Cpd 438, N-[5-(2,2-difluoroethoxy)-3-fluoropyridin-2-yl]-4-(3-fluorophenyl)-1H-pyrrole-3-sulfonamide]
< 0.5 | N#Cc1cc(F)c(NS(=O)(=O)c2c[nH]cc2Cc2ccccc2)cc1Cl [Cpd 439, 4-benzyl-N-(5-chloro-4-cyano-2-fluorophenyl)-1H-pyrrole-3-sulfonamide]
< 0.5 | Cc1cc(NS(=O)(=O)c2c[nH]cc2Cc2ccccc2)c(F)cc1C#N [Cpd 440, 4-benzyl-N-(4-cyano-2-fluoro-5-methylphenyl)-1H-pyrrole-3-sulfonamide]
< 0.5 | N#Cc1ccc(NS(=O)(=O)c2c[nH]c(-c3ccoc3)c2)c(F)c1 [Cpd 441, N-(4-cyano-2-fluorophenyl)-5-(furan-3-yl)-1H-pyrrole-3-sulfonamide]
< 0.5 | N#Cc1ccc(NS(=O)(=O)c2c[nH]c(-c3cccc4ccoc34)c2)c(F)c1 [Cpd 442, 5-(1-benzofuran-7-yl)-N-(4-cyano-2-fluorophenyl)-1H-pyrrole-3-sulfonamide]
< 0.5 | N#Cc1ccc(NS(=O)(=O)c2c[nH]c(-c3cccc4c3OCC4)c2)c(F)c1 [Cpd 443, N-(4-cyano-2-fluorophenyl)-5-(2,3-dihydro-1-benzofuran-7-yl)-1H-pyrrole-3-sulfonamide]
0.5 to 5 | COc1nc(OCC(F)F)c(F)cc1NS(=O)(=O)c1c[nH]cc1Cc1ccccc1 [Cpd 444, 4-benzyl-N-[6-(2,2-difluoroethoxy)-5-fluoro-2-methoxypyridin-3-yl]-1H-pyrrole-3-sulfonamide]
< 0.5 | N#Cc1ccc(NS(=O)(=O)c2c[nH]c(-c3ccco3)c2)c(F)c1 [Cpd 445, N-(4-cyano-2-fluorophenyl)-5-(furan-2-yl)-1H-pyrrole-3-sulfonamide]
0.5 to 5 | O=S(=O)(Nc1cc(F)c(Br)cc1F)c1c[nH]c(-c2ccc(F)cc2)c1 [Cpd 446, N-(4-bromo-2,5-difluorophenyl)-5-(4-fluorophenyl)-1H-pyrrole-3-sulfonamide]
0.5 to 5 | O=S(=O)(Nc1cc(F)c(Br)cc1F)c1c[nH]c(-c2ccc(F)cc2F)c1 [Cpd 447, N-(4-bromo-2,5-difluorophenyl)-5-(2,4-difluorophenyl)-1H-pyrrole-3-sulfonamide]
< 0.5 | N#CCOc1cc(F)c(NS(=O)(=O)c2c[nH]c(-c3ccccc3F)c2)cc1F [Cpd 448, N-[4-(cyanomethoxy)-2,5-difluorophenyl]-5-(2-fluorophenyl)-1H-pyrrole-3-sulfonamide]
< 0.5 | N#CCOc1cc(F)c(NS(=O)(=O)c2c[nH]c(-c3cc(Cl)ccc3F)c2)cc1F [Cpd 449, 5-(5-chloro-2-fluorophenyl)-N-[4-(cyanomethoxy)-2,5-difluorophenyl]-1H-pyrrole-3-sulfonamide]
0.5 to 5 | N#CCOc1cc(F)c(NS(=O)(=O)c2c[nH]c(-c3ccc(F)cc3)c2)cc1F [Cpd 450, N-[4-(cyanomethoxy)-2,5-difluorophenyl]-5-(4-fluorophenyl)-1H-pyrrole-3-sulfonamide]
0.5 to 5 | N#CCOc1cc(F)c(NS(=O)(=O)c2c[nH]c(-c3ccc(F)cc3F)c2)cc1F [Cpd 451, N-[4-(cyanomethoxy)-2,5-difluorophenyl]-5-(2,4-difluorophenyl)-1H-pyrrole-3-sulfonamide]
< 0.5 | O=S(=O)(Nc1cc(F)c(OC(F)F)cc1F)c1c[nH]cc1Cc1cccs1 [Cpd 452, N-[4-(difluoromethoxy)-2,5-difluorophenyl]-4-(thiophen-2-ylmethyl)-1H-pyrrole-3-sulfonamide]

IC50 [µM] | SMILES
< 0.5 | O=S(=O)(Nc1cc(F)c(OC(F)F)cc1F)c1c[nH]cc1Cc1cccc(F)c1 [Cpd 453, N-[4-(difluoromethoxy)-2,5-difluorophenyl]-4-[(3-fluorophenyl)methyl]-1H-pyrrole-3-sulfonamide]
0.5 to 5 | O=S(=O)(Nc1cc(F)c(OC(F)F)cc1F)c1c[nH]cc1Cc1cccc(Cl)c1 [Cpd 454, 4-[(3-chlorophenyl)methyl]-N-[4-(difluoromethoxy)-2,5-difluorophenyl]-1H-pyrrole-3-sulfonamide]
< 0.5 | O=S(=O)(Nc1cc(Cl)c(OC(F)F)cc1F)c1c[nH]c(-c2ccccc2)c1 [Cpd 455, N-[5-chloro-4-(difluoromethoxy)-2-fluorophenyl]-5-phenyl-1H-pyrrole-3-sulfonamide]
< 0.5 | N#Cc1cc(F)c(NS(=O)(=O)c2c[nH]c(-c3cc(Cl)c(F)cc3F)c2)cc1F [Cpd 456, 5-(5-chloro-2,4-difluorophenyl)-N-(4-cyano-2,5-difluorophenyl)-1H-pyrrole-3-sulfonamide]
0.5 to 5 | Cc1cc(-c2cc(S(=O)(=O)Nc3cc(F)c(C(F)(F)F)cc3F)c[nH]2)cs1 [Cpd 457, N-[2,5-difluoro-4-(trifluoromethyl)phenyl]-5-(5-methylthiophen-3-yl)-1H-pyrrole-3-sulfonamide]
0.5 to 5 | O=S(=O)(Nc1cc(F)c(C(F)(F)F)cc1F)c1c[nH]c(-c2csc(Cl)c2)c1 [Cpd 458, 5-(5-chlorothiophen-3-yl)-N-[2,5-difluoro-4-(trifluoromethyl)phenyl]-1H-pyrrole-3-sulfonamide]
< 0.5 | N#CCOc1cc(F)c(NS(=O)(=O)c2c[nH]c(-c3ccccc3Cl)c2)cc1F [Cpd 459, 5-(2-chlorophenyl)-N-[4-(cyanomethoxy)-2,5-difluorophenyl]-1H-pyrrole-3-sulfonamide]
0.5 to 5 | COc1nc(OCC(F)F)c(F)cc1NS(=O)(=O)c1c[nH]cc1-c1cccc(F)c1 [Cpd 460, N-[6-(2,2-difluoroethoxy)-5-fluoro-2-methoxypyridin-3-yl]-4-(3-fluorophenyl)-1H-pyrrole-3-sulfonamide]
5 to 50 | Cc1[nH]cc(S(=O)(=O)Nc2ccc(C#N)cc2F)c1-c1ccccc1 [Cpd 461, N-(4-cyano-2-fluorophenyl)-5-methyl-4-phenyl-1H-pyrrole-3-sulfonamide]
< 0.5 | N#Cc1cc(F)c(NS(=O)(=O)c2c[nH]c(-c3c(F)cc(F)cc3F)c2)cc1F [Cpd 462, N-(4-cyano-2,5-difluorophenyl)-5-(2,4,6-trifluorophenyl)-1H-pyrrole-3-sulfonamide]
0.5 to 5 | O=S(=O)(Nc1cc(F)c(OCC(F)F)cc1F)c1c[nH]c(-c2ccccc2)c1 [Cpd 463, N-[4-(2,2-difluoroethoxy)-2,5-difluorophenyl]-5-phenyl-1H-pyrrole-3-sulfonamide]
0.5 to 5 | COc1cc(CC#N)cnc1NS(=O)(=O)c1c[nH]c(-c2ccccc2F)c1 [Cpd 464, N-[5-(cyanomethyl)-3-methoxypyridin-2-yl]-5-(2-fluorophenyl)-1H-pyrrole-3-sulfonamide]
0.5 to 5 | O=S(=O)(Nc1cc(F)c(C(F)(F)F)cc1F)c1c[nH]c(-c2cccc3cccnc23)c1 [Cpd 465, N-[2,5-difluoro-4-(trifluoromethyl)phenyl]-5-quinolin-8-yl-1H-pyrrole-3-sulfonamide]
0.5 to 5 | N#CCOc1cc(F)c(NS(=O)(=O)c2c[nH]cc2-c2cccc(F)c2)cc1F [Cpd 466, N-[4-(cyanomethoxy)-2,5-difluorophenyl]-4-(3-fluorophenyl)-1H-pyrrole-3-sulfonamide]
0.5 to 5 | O=S(=O)(Nc1cc(F)c(OCC(F)F)cc1F)c1c[nH]cc1Cc1ccccc1 [Cpd 468, 4-benzyl-N-[4-(2,2-difluoroethoxy)-2,5-difluorophenyl]-1H-pyrrole-3-sulfonamide]
0.5 to 5 | COc1nc(Br)cnc1NS(=O)(=O)c1c[nH]cc1-c1cccc(F)c1 [Cpd 469, N-(5-bromo-3-methoxypyrazin-2-yl)-4-(3-fluorophenyl)-1H-pyrrole-3-sulfonamide]
0.5 to 5 | N#Cc1cc(F)c(NS(=O)(=O)c2c[nH]c(-c3cc(Cl)c(F)cc3F)c2)cc1Cl [Cpd 470, 5-(5-chloro-2,4-difluorophenyl)-N-(5-chloro-4-cyano-2-fluorophenyl)-1H-pyrrole-3-sulfonamide]
0.5 to 5 | Cc1cc(NS(=O)(=O)c2c[nH]c(-c3cc(Cl)c(F)cc3F)c2)c(F)cc1C#N [Cpd 471, 5-(5-chloro-2,4-difluorophenyl)-N-(4-cyano-2-fluoro-5-methylphenyl)-1H-pyrrole-3-sulfonamide]
0.5 to 5 | N#CCOc1cnc(NS(=O)(=O)c2c[nH]c(-c3ccccc3)c2)c(F)c1 [Cpd 472, N-[5-(cyanomethoxy)-3-fluoropyridin-2-yl]-5-phenyl-1H-pyrrole-3-sulfonamide]
0.5 to 5 | O=S(=O)(Nc1cc(F)c(OCC(F)F)cc1F)c1c[nH]c(-c2ccccn2)c1 [Cpd 473, N-[4-(2,2-difluoroethoxy)-2,5-difluorophenyl]-5-pyridin-2-yl-1H-pyrrole-3-sulfonamide]
